Experimental data reported in PubChem BioAssay AID330 (DTP/NCI, 2004).
Inconclusive results and toxic doses are left out.

Test system: P388 leukemia ip, CD2F1 mice, survival T/C
Assay: NCI In Vivo Anticancer Drug Screen. Data for tumor model P388 Leukemia (intraperitoneal) in CD2F1 (CDF1) mice
Conditions: endpoint: median survival time, higher = longer survival
Outline: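 Mice carrying the transplanted tumor received test compound or vehicle. Survival was recorded in each group, and the value is the treated-group measurement divided by that of the vehicle-treated control group.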

[1] = dose: 60.0 mg/kg/injection, schedule: Q01DX005 (ip), vehicle: saline with Tween-80
[2] = dose: 120.0 mg/kg/injection, schedule: Q01DX005 (ip), vehicle: saline with Tween-80
[3] = dose: 240.0 mg/kg/injection, schedule: Q01DX005 (ip), vehicle: saline with Tween-80
[4] = dose: 50.0 mg/kg/injection, schedule: Q01DX005 (ip), vehicle: saline
[5] = dose: 100.0 mg/kg/injection, schedule: Q01DX005 (ip), vehicle: saline
[6] = dose: 200.0 mg/kg/injection, schedule: Q01DX005 (ip), vehicle: saline
[7] = dose: 12.5 mg/kg/injection, schedule: Q01DX005 (ip), vehicle: saline
[8] = dose: 25.0 mg/kg/injection, schedule: Q01DX005 (ip), vehicle: saline

Structure (SMILES): CC1(C)N=C(N)N=C(N)N1c1cccc(CCCCc2ccc(Cl)c(S(=O)(=O)F)c2)c1
- T/C (dose: 9.33 mg/kg/injection, schedule: Q01DX009 (ip), vehicle: saline): 118 % of control

Structure (SMILES): CCOC(=O)C(CO)NC(=O)c1cnc2ccccc2c1 (configuration not stated)
- T/C [1]: 99 % of control
- T/C [2]: 97 % of control

Structure (SMILES): NC(=S)NNC(=O)CCC(=O)Nc1ccccc1Cl
- T/C [1]: 103 % of control
- T/C [2]: 102 % of control
- T/C [3]: 99 % of control

Structure (SMILES): [CH3][Sn]([CH3])([N](c1ccccn1)c1ccccn1)[N](c1ccccn1)c1ccccn1
- T/C (dose: 50.0 mg/kg/injection, schedule: Q01DX005 (ip), vehicle: Klucel (hydroxypropylcellulose) (HPC)): 111 % of control
- T/C (dose: 100.0 mg/kg/injection, schedule: Q01DX005 (ip), vehicle: Klucel (hydroxypropylcellulose) (HPC)): 118 % of control

Structure (SMILES): C[CH2][Sn]1([CH2]C)[O]OC(c2ccccc2)[O]1 (configuration not stated)
- T/C (dose: 1.56 mg/kg/injection, schedule: Q01DX009 (ip), vehicle: saline with Tween-80): 155 % of control
- T/C (dose: 12.5 mg/kg/injection, schedule: Q01DX009 (ip), vehicle: saline with Tween-80): 173 % of control

Structure (SMILES): c1ccc2c3c([nH]c2c1)[C@@H]1CCN2CCC[C@@H]2N1CC3
- T/C (dose: 5.75 mg/kg/injection, schedule: Q01DX005 (ip), vehicle: Klucel (hydroxypropylcellulose) (HPC)): 101 % of control
- T/C (dose: 11.5 mg/kg/injection, schedule: Q01DX005 (ip), vehicle: Klucel (hydroxypropylcellulose) (HPC)): 100 % of control
- T/C (dose: 23.0 mg/kg/injection, schedule: Q01DX005 (ip), vehicle: Klucel (hydroxypropylcellulose) (HPC)): 95 % of control
- T/C (dose: 46.0 mg/kg/injection, schedule: Q01DX005 (ip), vehicle: Klucel (hydroxypropylcellulose) (HPC)): 93 % of control

Structure (SMILES): COC(=O)C(CCCN)NC(=O)c1ccccc1 (configuration not stated)
- T/C [4]: 99 % of control
- T/C [5]: 92 % of control
- T/C [6]: 90 % of control

Structure (SMILES): COc1cccc(OC)c1OC(=O)Nc1ccccc1F
- T/C [1]: 102 % of control
- T/C [2]: 105 % of control
- T/C [3]: 102 % of control

Structure (SMILES): CC1CCN(C(=O)c2cc(Nc3ccnc4cc(Cl)ccc34)ccc2O)CC1
- T/C (dose: 100.0 mg/kg/injection, schedule: Q04DX002 (ip), vehicle: saline with Tween-80): 99 % of control
- T/C (dose: 200.0 mg/kg/injection, schedule: Q04DX002 (ip), vehicle: saline with Tween-80): 99 % of control
- T/C (dose: 400.0 mg/kg/injection, schedule: Q04DX002 (ip), vehicle: saline with Tween-80): 89 % of control

Structure (SMILES): CCn1c(=O)cc2n(C)c3ccccc3n2c1=O
- T/C [1]: 98 % of control
- T/C [2]: 94 % of control
- T/C [3]: 92 % of control

Structure (SMILES): CCCCCCCCCCC(CCCCCC)C(=O)O (configuration not stated)
- T/C (dose: 75.0 mg/kg/injection, schedule: Q01DX001 (ip), vehicle: saline with Tween-80): 104 % of control
- T/C (dose: 150.0 mg/kg/injection, schedule: Q01DX001 (ip), vehicle: saline with Tween-80): 104 % of control
- T/C (dose: 300.0 mg/kg/injection, schedule: Q01DX001 (ip), vehicle: saline with Tween-80): 100 % of control

Structure (SMILES): O=c1c2cc(OCO)ccc2[nH]c2cc3c(=O)c4cc(OCO)ccc4[nH]c3cc12
- T/C (dose: 50.0 mg/kg/injection, schedule: Q01DX009 (ip), vehicle: saline): 102 % of control
- T/C (dose: 100.0 mg/kg/injection, schedule: Q01DX009 (ip), vehicle: saline): 99 % of control
- T/C (dose: 200.0 mg/kg/injection, schedule: Q01DX009 (ip), vehicle: saline): 93 % of control

Structure (SMILES): C/C=N/NCCC#N
- T/C (dose: 6.25 mg/kg/injection, schedule: Q01DX005 (ip), vehicle: saline): 100 % of control
- T/C [7]: 100 % of control
- T/C [8]: 90 % of control

Structure (SMILES): COc1cc([N+](=O)[O-])cc2c1OC1(SC(C)(C)C(C)CN1C)C(C)=C2 (configuration not stated)
- T/C (dose: 100.0 mg/kg/injection, schedule: Q04DX003 (ip), vehicle: saline with Tween-80): 105 % of control
- T/C (dose: 200.0 mg/kg/injection, schedule: Q04DX003 (ip), vehicle: saline with Tween-80): 100 % of control
- T/C (dose: 400.0 mg/kg/injection, schedule: Q04DX003 (ip), vehicle: saline with Tween-80): 95 % of control

Structure (SMILES): C1CCC(NC2CCCCC2)CC1
- T/C [7]: 103 % of control
- T/C (dose: 23.7 mg/kg/injection, schedule: Q01DX005 (ip), vehicle: saline): 100 % of control
- T/C [8]: 102 % of control
- T/C (dose: 35.6 mg/kg/injection, schedule: Q01DX005 (ip), vehicle: saline): 100 % of control
- T/C [4]: 100 % of control
- T/C (dose: 53.3 mg/kg/injection, schedule: Q01DX005 (ip), vehicle: saline): 100 % of control
- T/C (dose: 80.0 mg/kg/injection, schedule: Q01DX005 (ip), vehicle: saline): 100 % of control
- T/C [5]: 93 % of control
- T/C [6]: 102 % of control
